Measurements reported in patent US20040126359A1, “Hedgehog” (priority 2001, published 2004).

Tests used:
[1] = test system: CD4+ T-cells; assay: Taqman real time PCR of Shh, Ihh, HIP and Ptc expression in CD4+ T-cells (FIGS. 14, 15, 17); type: cell-based; details: for Shh expression / production by activated T-cells: cytokine added; for Hip expression / Shh expression: activated T-cells, IFNγ
Procedure: Expression in medium, in the presence of 50 ng/ml IL-10 and in the presence of 50 ng/ml IFN-γ was compared to expression in resting CD4+ T-cells;
Similar experiments were used to study the expression of Shh (FIG. 4) and Ptc (FIG. 5) in T-cells and the expression of components of the Hh signalling pathway in lymphoid tissues (FIG. 6). FIG. 14 illustrates the results of an RT-PCR analysis of Shh, Ihh, Hip and Ptc expression. Activation of T-cells induced a sustained and marked (approximately 80-fold) increase in Shh mRNA, peaking at 44 and 72 hours. It lead to a downregulation of Ptc.

[2] = molecular target: endogenous Shh produced by activated mouse CD4+ T-cells (mouse) (UniProt Q62226); assay: cell-based or functional assay
endogenous Shh produced by activated mouse CD4+ T-cells (mouse), sequence (Q62226 25-198 limits assumed): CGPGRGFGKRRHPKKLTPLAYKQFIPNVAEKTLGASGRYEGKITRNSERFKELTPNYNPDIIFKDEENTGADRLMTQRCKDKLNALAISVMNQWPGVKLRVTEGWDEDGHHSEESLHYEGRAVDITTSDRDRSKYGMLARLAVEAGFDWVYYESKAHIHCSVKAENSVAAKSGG

## TGF-β
[1]
  Shh expression / production by activated T-cells: down-regulate

## neutralising anti-Shh antibody 5E1
[2]
  % decrease in the proportion of CD4+ T-cells in S/G2 with anti-Shh antibody (50 µg/ml), cell cycle analysis: 66.2 to 81.6%
  % decrease in the proportion of CD4+ T-cells in S/G2 with anti-Shh antibody (50 µg/ml), cell cycle analysis, mean: 73.4%
  decrease in proliferation of sub-optimally activated CD4+ T-cells with 50 µg/ml anti-Shh antibody (3H-TdR incorporation): 71.3 to 85.1%

## IFNγ: cytokine interferon gamma
[1]; 24 and 48 hours
  Hip expression: upreguated
[1]; 24 hours
  Shh expression: downregulation
[1]; 48 hours
  Shh expression: upregulation
[1]; 72 hours
  Hip expression: downregulted
[1]
  Shh expression / production by activated T-cells: downregulation

B1: IL-10: immunosuppressive cytokine, interleukin (protein, UniProt P22301 19-178, looked up)
Interleukin-10: SPGQGTQSENSCTHFPGNLPNMLRDLRDAFSRVKTFFQMKDQLDNLLLKESLLEDFKGYLGCQALSEMIQFYLEEVMPQAENQDPDIKAHVNSLGENLKTLRLRLRRCHRFLPCENKSKAVEQVKNAFNKLQEKGIYKAMSEFDIFINYIEAYMTMKIRN
[1]
  Shh expression / production by activated T-cells: down-regulate
